{
  "source": "patent US12677825B2",
  "about": "“Composition for protecting islet transplantation” (LG CHEM, LTD., priority 2020, dated 2026)",
  "key": {"[1]": {"test_system": "wild type C57BL/6 mouse islets", "experiment": "Effects of Compound 1 during isolation on wild type mouse islets (viability, function, cytokine expression)", "format": "cell-based", "settings": "Compound 1 during islet isolation; FIG. 2", "protocol": "(§1) Mouse islets were isolated from 10- to 12-week-old hIAPP^+/− and C57BL/6 mice as described previously. Briefly, 0.8 mg/mL of collagenase P (Roche, Indianapolis, IN, USA) in Hank's buffered saline solution (HBSS, Sigma-Aldrich, St. Louis, MO, USA) with or without 20 μM Compound 1 were infused into the common bile duct for mouse pancreas digestion. Islets were purified from the digested pancreas using a Ficoll (Biochrom, Berlin, Germany) gradient and washed several times with 1 xHBSS. Isolated islets were cultured while free-floating in 10 mL of RPMI 1640 (Gibco, Grand Island, NY, USA). The medium was supplemented with 10% heat-inactivated FBS (fetal bovine serum) at 37° C. and 5% CO2 incubation prior to the ex vivo and in vivo studies."}, "[2]": {"test_system": "c-Jun N-terminal kinases, HMGB1, IL-1β, IL-6, TNF-α", "experiment": "Real-time qRT-PCR of c-Jun, HMGB1 and proinflammatory cytokines after islet isolation", "format": "cell-based, mouse", "settings": "after isolation with 20 μM Compound 1, vs non-treated group; FIG. 1F", "protocol": "as §1, with “The medium was supplemented with 10% heat-inactivated FBS (fetal bovine serum) at 37° C. and 5% CO2 incubation prior to the ex vivo and in vivo studies.” left out\n(§2) Harvested islets were treated with 500 μL Trizol (Life Technologies, Grand Island, NY, USA), and then 100 μL of chloroform was added. […] RNA purity was assessed by NanoDrop (Thermo Scientific, Wilmington, DE, USA) and agarose gel electrophoresis. […] Total RNA was reverse transcribed to quantify the expression of genes using the SuperScript™ II reverse transcription system (Life Technologies) according to the manufacturer's protocol.\n(§3) Real-time qRT-PCR was performed using gene-specific primer pairs (Table 1). […] To quantify the expression level of genes, real-time PCR was performed using a SYBR premix kit (Takara Bio Inc., Tokyo, Japan) and an ABI Prism 7000 (Applied Biosystems, Foster City, CA, USA) according to the manufacturers' protocols."}, "[3]": {"test_system": "TNF-α, IL-1β, IL-6, c-JUN and HMGB1", "experiment": "Real-time qRT-PCR transcript levels during serum-deprived ex vivo culture", "format": "cell-based, mouse", "settings": "after 1 and 3 days of ex vivo culture, BSA+Compound 1 vs BSA group; FIGS. 6C, 6D", "protocol": "Purified hIAPP^+/− FVB/N and C57BL/6J mouse were suspended in RPMI 1640 (Gibco, Grand Island, NY, USA) containing 100 IU/mL penicillin and 100 μg/mL streptomycin, and cultured at 37° C. in a fully humidified 5% CO2 atmosphere. Purified NHP islets were suspended in CMRL 1066 medium (Coming Life Sciences, Tewksbury, MA; catalog number 99-663-CV) containing 100 IU/mL penicillin and 100 μg/mL streptomycin, and cultured at 37° C. in a fully humidified 5% CO2 atmosphere. […]\nas §2, §3"}, "[4]": {"test_system": "RINm5F cells", "experiment": "tert-butyl hydroperoxide (tBHP) exposure of RINm5F cells", "format": "cell-based, rat", "settings": "Compound 1 supplementation", "protocol": "Islets were isolated from heterozygous human islet amyloid polypeptide transgenic (hIAPP^+/−)FVB/N mice (Jackson Laboratory, Bar Harbor, ME, USA), […] mice (Orientbio, Sungnam, Korea), and cynomolgus monkeys (Macaca fascicularis; Orientbio, Sungnam, Korea). For additional in vitro studies, rat insulinoma cells (RINm5F cells) were treated with or without Compound 1 during culture under tert-butyl hydroperoxide (tBHP) exposure or serum deprivation condition. RINm5F cells were suspended in DMEM medium (Gibco, Grand Island, NY, USA) containing 100 IU/mL penicillin and 100 μg/mL streptomycin, and cultured at 37° C. in a fully humidified 5% CO2 atmosphere. All experimental protocols in this study were approved by the Institutional Animal Care and Use Committee (IACUC) of Samsung Biomedical Research Institute."}},
  "data": [
    {"smiles": "O=S1(=O)CCN(Cc2cc(NC3CCOCC3)c3[nH]c(-c4ccccc4)cc3c2)CC1", "note": "[Compound 1]", "values": [
      {"measurement": "reproduction of isolation results (viability, function, pro-inflammatory cytokine expression) in wild type islets", "setting": "[1]", "value": "reproduced"},
      {"measurement": "transcriptional expression of c-Jun N-terminal kinases, HMGB1, IL-1β, IL-6 and TNF-α", "setting": "[2]", "value": "significantly decreased"},
      {"measurement": "transcript levels of TNF-α, IL-1β, IL-6, c-JUN and HMGB1", "setting": "[3]", "value": "significantly attenuated"},
      {"measurement": "cellular toxicity (LDH release)", "setting": "[4]; FIG. 4A", "value": "markedly reduced"},
      {"measurement": "ROS contents", "setting": "[4]; FIG. 4B", "value": "markedly reduced"}
    ]}
  ]
}
